Laboratory results reported in patent US20230053540A1, “TREATMENT OF LIVER INJURY” (Massachusetts Institute of Technology, priority 2019, published 2023).

System: hepatocytes
Test: Seq-Well scRNA-Seq of hepatocytes after APAP overdose (signature scores, DEG vs untreated)
Type: in vivo, mouse

CC(=O)Nc1ccc(O)cc1 [APAP, acetaminophen]
Ubb A48logFC (A48 vs UT): −0.2644
0610005C13Rik avg_logFC (A96 vs untreated (UT)): 0.2979
0610005C13Rik pct.1 (A96 vs untreated (UT)): 0.816
0610007P14Rik avg_logFC (A96 vs untreated (UT)): 0.2519
0610007P14Rik pct.1 (A96 vs untreated (UT)): 0.512
8430408G22Rik avg_logFC (A96 vs untreated (UT)): 0.2527
8430408G22Rik pct.1 (A96 vs untreated (UT)): 0.559
Abca6 avg_logFC (A96 vs untreated (UT)): 0.2823
Abca6 pct.1 (A96 vs untreated (UT)): 0.686
Abcb4 avg_logFC (A96 vs untreated (UT)): 0.4758
Abcb4 pct.1 (A96 vs untreated (UT)): 0.878
Abcc3 pct.1 (A96 vs untreated (UT)): 0.733
Acad11 avg_logFC (A96 vs untreated (UT)): 0.2578
Acad11 pct.1 (A96 vs untreated (UT)): 0.711
Acadl avg_logFC (A96 vs untreated (UT)): 0.2937
Acadl pct.1 (A96 vs untreated (UT)): 0.8
Acat1 avg_logFC (A96 vs untreated (UT)): 0.3485
Acat1 pct.1 (A96 vs untreated (UT)): 0.917
Acbd5 avg_logFC (A96 vs untreated (UT)): 0.4341
Acbd5 pct.1 (A96 vs untreated (UT)): 0.87
Acot1 avg_logFC (A96 vs untreated (UT)): 0.298
Acot1 pct.1 (A96 vs untreated (UT)): 0.459
Acot4 avg_logFC (A96 vs untreated (UT)): 0.268
Acot4 pct.1 (A96 vs untreated (UT)): 0.328
Acot12 avg_logFC (A96 vs untreated (UT)): 0.2957
Acot12 pct.1 (A96 vs untreated (UT)): 0.65
Acsl1 avg_logFC (A96 vs untreated (UT)): 0.2915
Acsl1 pct.1 (A96 vs untreated (UT)): 0.977
Actn4 avg_logFC (A96 vs untreated (UT)): 0.2609
Actn4 pct.1 (A96 vs untreated (UT)): 0.6
Agpat6 avg_logFC (A96 vs untreated (UT)): 0.4098
Agpat6 pct.1 (A96 vs untreated (UT)): 0.743
Agt avg_logFC (A96 vs untreated (UT)): 0.3765
Agt pct.1 (A96 vs untreated (UT)): 0.912
Akr1c6 avg_logFC (A96 vs untreated (UT)): −0.359
Akr1c6 pct.1 (A96 vs untreated (UT)): 0.967
Akr1d1 avg_logFC (A96 vs untreated (UT)): 0.3787
Akr1d1 pct.1 (A96 vs untreated (UT)): 0.721
Aldh2 avg_logFC (A96 vs untreated (UT)): 0.304
Aldh2 pct.1 (A96 vs untreated (UT)): 0.995
Aldh3a2 avg_logFC (A96 vs untreated (UT)): 0.4933
Aldh3a2 pct.1 (A96 vs untreated (UT)): 0.687
Aldh6a1 avg_logFC (A96 vs untreated (UT)): 0.2669
Aldh6a1 pct.1 (A96 vs untreated (UT)): 0.829
Aldh9a1 avg_logFC (A96 vs untreated (UT)): 0.3633
Aldh9a1 pct.1 (A96 vs untreated (UT)): 0.884
Amy1 avg_logFC (A96 vs untreated (UT)): 0.4212
Amy1 pct.1 (A96 vs untreated (UT)): 0.831
Angptl3 avg_logFC (A96 vs untreated (UT)): 0.6936
Angptl3 pct.1 (A96 vs untreated (UT)): 0.998
Apoc1 avg_logFC (A96 vs untreated (UT)): 0.5008
Apoc1 pct.1 (A96 vs untreated (UT)): 1
Apoc2 avg_logFC (A96 vs untreated (UT)): 0.5187
Apoc2 pct.1 (A96 vs untreated (UT)): 0.901
Apoc3 avg_logFC (A96 vs untreated (UT)): 0.3002
Apoe avg_logFC (A96 vs untreated (UT)): 0.327
Apoe pct.1 (A96 vs untreated (UT)): 1
Apoh avg_logFC (A96 vs untreated (UT)): 0.3467
Apoh pct.1 (A96 vs untreated (UT)): 0.998
Apol7a avg_logFC (A96 vs untreated (UT)): 0.2716
Apol7a pct.1 (A96 vs untreated (UT)): 0.559
Aqp9 avg_logFC (A96 vs untreated (UT)): 0.3346
Aqp9 pct.1 (A96 vs untreated (UT)): 0.801
Arl4a avg_logFC (A96 vs untreated (UT)): 0.2911
Arl4a pct.1 (A96 vs untreated (UT)): 0.517
Asl avg_logFC (A96 vs untreated (UT)): 0.4141
Asl pct.1 (A96 vs untreated (UT)): 0.896
Atf5 avg_logFC (A96 vs untreated (UT)): 0.2708
Atf5 pct.1 (A96 vs untreated (UT)): 0.745
Atp5k avg_logFC (A96 vs untreated (UT)): 0.4068
Atp5k pct.1 (A96 vs untreated (UT)): 0.837
Atp5h avg_logFC (A96 vs untreated (UT)): 0.3114
Atp5h pct.1 (A96 vs untreated (UT)): 0.848
Atxn7l3b avg_logFC (A96 vs untreated (UT)): 0.2828
Atxn7l3b pct.1 (A96 vs untreated (UT)): 0.654
BC005537 avg_logFC (A96 vs untreated (UT)): 0.2869
BC005537 pct.1 (A96 vs untreated (UT)): 0.611
Baat avg_logFC (A96 vs untreated (UT)): 0.2625
Baat pct.1 (A96 vs untreated (UT)): 0.862
Bche avg_logFC (A96 vs untreated (UT)): 0.3287
Bche pct.1 (A96 vs untreated (UT)): 0.588
Bnip3 avg_logFC (A96 vs untreated (UT)): 0.3443
Bnip3 pct.1 (A96 vs untreated (UT)): 0.716
Brap avg_logFC (A96 vs untreated (UT)): 0.3113
Brap pct.1 (A96 vs untreated (UT)): 0.642
Brd2 avg_logFC (A96 vs untreated (UT)): 0.3104
Brd2 pct.1 (A96 vs untreated (UT)): 0.601
Cbr1 avg_logFC (A96 vs untreated (UT)): 0.2829
Cbr1 pct.1 (A96 vs untreated (UT)): 0.591
Cd36 avg_logFC (A96 vs untreated (UT)): 0.3312
Cd36 pct.1 (A96 vs untreated (UT)): 0.299
Cdo1 avg_logFC (A96 vs untreated (UT)): 0.5679
Cdo1 pct.1 (A96 vs untreated (UT)): 0.998
Ces1c avg_logFC (A96 vs untreated (UT)): 0.3583
Ces1c pct.1 (A96 vs untreated (UT)): 1
Ces1e avg_logFC (A96 vs untreated (UT)): 0.2944
Ces1e pct.1 (A96 vs untreated (UT)): 0.71
Ces3a avg_logFC (A96 vs untreated (UT)): −0.2844
Ces3a pct.1 (A96 vs untreated (UT)): 0.97
Ces3b avg_logFC (A96 vs untreated (UT)): −0.3398
Ces3b pct.1 (A96 vs untreated (UT)): 0.685
